Patent US20180028471A1, “CONTINUOUS LOCAL SLOW-RELEASE OF THERAPEUTICS FOR HEAD AND NECK PROBLEMS AND UPPER AERODIGESTIVE DISORDERS” (Board of Supervisors of Louisiana State University and …, priority 2016, published 2018)

Legend:
minimal residual disease = assay: Model of minimal residual disease (tumor formation, survival); format: in vivo
mTOR pathway markers = assay: Phase 2 biomarker exploratory trial: mTOR pathway markers in tumors and PBMCs; format: in vivo; settings: HNSCC patients
Source text: Criteria #1) Biomarker expression in normal tissue should be different from that in high risk tissue. In FIG. 2 we present an analysis of cancer (lanes 5, 6, 11, and 12) and non-cancer (patients with sleep apnea) (lanes1-4 and 7-10) patient samples. The cancer samples include tumors (T) and histologically tumor-free margins (M). […] Criteria #2) Biomarkers can be detected in small tissue specimens. In our studies we have successfully detected by western blots and even by IHC the various Akt/mTOR markers on samples often as small as 5 mm. Criteria #3) Biomarkers can be expressed in a quantity or pattern that can be correlated with the stage of carcinogenesis.

HNSCC cell lines = assay: Inhibition of cell proliferation in HNSCC cell lines; format: cell-based
Source text: While curcumin can be used to treat these cancers, other compounds that act on these pathways may also be useful in treating these cancers and it should be readily recognized that such compounds could also be delivered by including in the formulations described herein.

[1] = tested on: normal fibroblast cell line CCL110; assay: Effects on normal fibroblast cell line CCL110 (proliferation); format: cell-based; settings: normal fibroblast cell line CCL110, FIG. 1
PCI15a cells = assay: Modulation of NFκB and Akt/mTOR pathways in PCI15a cells; format: cell-based; settings: 10 μM
SCC40 cells = assay: Modulation of NFκB and Akt/mTOR pathways in SCC40 cells; format: cell-based; settings: 10 μM
SCC066 = assay: Modulation of NFκB and Akt/mTOR pathways in SCC066 cells; format: cell-based; settings: 10 μM, 24 and 48 hours
[2] = tested on: normal fibroblast cell line CCL110; assay: Modulation of NFκB and Akt/mTOR pathways in CCL110 normal fibroblasts; format: cell-based; settings: 10 μM, 24 and 48 hours
SCC40 xenografts = assay: pAkt and pS6 in SCC40 xenografts of treated mice; format: in vivo; settings: mice with SCC40 xenografts, FIG. 3B
tumor cells = assay: Chemoprevention model: pre-treatment before tumor cell injection, tumor volumes; format: in vivo, Balb/c nu/nu mice; settings: 10 mg, pre-treated 4 days before tumor cell injection, about three weeks
Experimental: Balb/c nu/nu mice were randomized into treatment groups. […] Tumors were measured over approximately three weeks. […] ANOVA analysis. […] This also points to its role as a chemopreventive agent rather than a therapeutic agent.

[3] = tested on: TPA-induced tumor promotion on mouse skin; settings: topical application of 10 μmol twice weekly; cited from earlier work
DMBA-induced oral tumors = settings: 10 μmol topically to cheek pouch 3 times/week for 24 weeks; cited from earlier work
[4] = tested on: prostate cancer xenograft; settings: p.o. gavage 5 mg/day, 5 days/week for 4 weeks; cited from earlier work

CO[C@H]1C[C@@H]2CC[C@@H](C)[C@@](O)(O2)C(=O)C(=O)N2CCCC[C@H]2C(=O)O[C@H]([C@H](C)C[C@@H]2CC[C@@H](OC(=O)C(C)(CO)CO)[C@H](OC)C2)CC(=O)[C@H](C)/C=C(\C)[C@@H](O)[C@@H](OC)C(=O)[C@H](C)C[C@H](C)/C=C/C=C/C=C/1C [CCI-779, temsirolimus]
survival (minimal residual disease): improve survival
tumor formation (minimal residual disease): inhibit tumor formation
mTOR pathway markers in tumors and PBMCs (mTOR pathway markers): modulation of these markers

CO[C@H]1C[C@@H]2CC[C@@H](C)[C@@](O)(O2)C(=O)C(=O)N2CCCC[C@H]2C(=O)O[C@H]([C@H](C)C[C@@H]2CC[C@@H](OCCO)[C@H](OC)C2)CC(=O)[C@H](C)/C=C(\C)[C@@H](O)[C@@H](OC)C(=O)[C@H](C)C[C@H](C)/C=C/C=C/C=C/1C [RAD001, everolimus, reference compound]
sensitivity of a variety of cell lines (HNSCC cell lines): wide range of sensitivity

COc1cc(/C=C/C(=O)CC(=O)/C=C/c2ccc(O)c(OC)c2)ccc1O [curcumin]
growth inhibitory effects on all HNSCC cell lines tested (HNSCC cell lines; all 10 HNSCC cell lines tested to date): growth inhibitory effects
cell proliferation at 10 μM (HNSCC cell lines; all HNSCC cell lines, 10 μM, FIG. 1): inhibition of cell proliferation
growth inhibitory effects at 48 hours (HNSCC cell lines; all three HNSCC cell lines, 48 hours): significant growth inhibitory effects
concentration giving consistent inhibition of cell proliferation (HNSCC cell lines; variety of HNSCC cell lines, in vitro, FIG. 1): less than 10 μM
sensitivity of a variety of cell lines (HNSCC cell lines): consistently sensitive
dose required to see effects [1]: 20 to 40 µM
pNFκB (PCI15a cells; 24 and 48 hours): no change
pAkt (PCI15a cells; 48 hours): down-regulated
pS6 downstream of mTOR (PCI15a cells; 48 hours): down-regulated
Akt/mTOR pathway (SCC40 cells; 24 and 48 hours): no change
pNFκB (SCC40 cells; after 48 hours): down-regulation
Akt/mTOR pathway (SCC066): did not show any modulation
pNFκB or Akt/mTOR [2]: no decrease
pAkt (SCC40 xenografts): significant decrease
pS6 (SCC40 xenografts): significant decrease
tumor volumes versus control (vehicle treated) (tumor cells): no significant difference
inhibition of the number of tumors per mouse [3]: 98%
reduction of the number of DMBA-induced oral tumors (DMBA-induced oral tumors): ~40%
inhibition of growth of prostate cancer xenograft [4]: ~50%
